Inconclusive results are not listed. The source made the active and inactive calls. How the calls were made is not given here.
Target: Procathepsin L (Homo sapiens) (UniProt P07711)
Assay: IC50 of CTSL protease blockers – biochemical, confirmation, dose response (AID 825)
Details: purified cathepsin L enzyme activity, signal read-out

Sequence of Procathepsin L (Homo sapiens) (P07711 114-288 limits assumed): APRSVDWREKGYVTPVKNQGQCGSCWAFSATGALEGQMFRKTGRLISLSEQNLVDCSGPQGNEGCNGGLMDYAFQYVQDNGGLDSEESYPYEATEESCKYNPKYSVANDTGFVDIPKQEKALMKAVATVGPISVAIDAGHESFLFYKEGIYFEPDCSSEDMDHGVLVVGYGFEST
Sequence of Procathepsin L (Homo sapiens) (P07711 292-333 limits assumed): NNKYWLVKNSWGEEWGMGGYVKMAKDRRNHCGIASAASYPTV

IC50	Compound
> 50 µM (inactive)	CC(=O)Nc1nc2n(n1)C(c1ccc(F)cc1)C=C(c1ccccc1)N2 (configuration not stated)
> 50 µM (inactive)	COc1ccc(OC)c(C2C(C#N)=C(N)Oc3cc(C)n(Cc4ccccn4)c(=O)c32)c1 (configuration not stated)

Source: PubChem BioAssay AID825 (PCMD, 2007)
